# Results as given in patent US10980910B2, “Apparatus and methods for ozone generation and degradation” (Gene Therapy Systems, Inc., priority 2013, dated 2021).
# Where two headings read alike, the source gives them in different places.
# How the values were obtained:
# [1] = test system: humans; conditions: OSHA limit, per workday; cited from earlier work
# [2] = test system: bacteriophage T1; assay: Effect of ozone on bacteriophage T1 spotted on LB agar plates; format: cell-based; conditions: spots of 10^9 to 10^6 pfu/mL; ozone 4 hours, peak less than 150 ppm; silver-coated mesh generator; DH5 E. coli overlay, 72 hours at room temperature
# Method: In Experiment 2, the effect of ozone on bacteriophage T1 was studied. In the experiment, 2.5 μL of purified bacteriophage T1 was spotted in four quadrants of two LB agar plates—a test plate 610 and a control plate 620, shown in FIG. 6. The bacteriophage concentrations on each of the two plates were (clockwise from the spot in the upper right quadrant): 10^9 pfu/mL, 10^8 pfu/mL, 10^7 pfu/mL, and 10^6 pfu/mL.
# The test plate 610 was placed in an incubator chamber containing both an ozone generator and an ozone degrader. The ozone generator included two ceramic plates surrounded substantially by a silver-coated metal mesh. The ozone generator was activated and the test plate 610 was treated with ozone for 4 hours. The ozone generator was then turned off, and the ozone degrader, formed of activated carbon filters, accelerated the conversion of ozone to oxygen. The peak ozone concentration level generated within the incubator chamber was less than 150 ppm ozone.
# The control plate 620 was placed in a different incubator chamber and left untreated. After the ozone generation and degradation cycle completed in the incubator chamber containing the test plate 610, 1 mL of stationary DH5 E. coli bacteria and top agar were added to each plate and incubated at room temperature for 72 hours. The photograph 600 in FIG. 6 was taken immediately following this 72-hour period.
# [3] = Ozone breakdown in enclosed cell culture chamber, monitored with calibrated ozone analyzer; format: physicochemical
# Method: In Experiment 1, an 1800 mg/hour ozone generator was placed in a 5.5 cubic feet cell culture. The ozone level within the chamber was monitored using a calibrated ozone analyzer. Ozone measurements were captured every 10 seconds. The experimental results, as represented by ozone level over time, are provided in the line graph 500 of FIG. 5A. In test #1, represented by line 510, the ozone generator was run for 80 minutes and achieved a peak ozone concentration within the cell culture chamber of approximately 325 ppm. After the ozone generator was turned off, the ozone was left to break down naturally within the enclosed cell culture chamber. It took approximately 28 hours for the ozone to breakdown to 0.01 ppm ozone.
# In tests #2 and #3, represented by lines 520 and 530, respectively, both the ozone generator and an ozone degrader were present in the cell culture chamber. The ozone degrader was formed of three activated carbon filters. With the ozone degrader present, the ozone generator was unable to achieve the peak ozone concentration seen in test #1. In tests #2 and #3, the ozone generator was run for 120 minutes and the concentration of ozone noticeably plateaued. The air within the cell culture chamber reached a peak ozone concentration of approximately 140-150 ppm ozone. […]
# [4] = cited from earlier work
# [5] = test system: E. coli K-12 cells (strain DH5); assay: Sterilization efficacy on LB agar plates loaded with E. coli, ozone generation and degradation cycle in cell culture chamber; format: cell-based; conditions: test #2 dish; approx. 1.5×10^8 cells plated; ozone 120 minutes plus 15 minutes degradation; peak approx. 140-150 ppm ozone; plates incubated at 37° C. overnight
# Method: In tests #2 and #3, represented by lines 520 and 530, respectively, both the ozone generator and an ozone degrader were present in the cell culture chamber. The ozone degrader was formed of three activated carbon filters. With the ozone degrader present, the ozone generator was unable to achieve the peak ozone concentration seen in test #1. In tests #2 and #3, the ozone generator was run for 120 minutes and the concentration of ozone noticeably plateaued. The air within the cell culture chamber reached a peak ozone concentration of approximately 140-150 ppm ozone. After the ozone generator was turned off, the ozone began to break down at an accelerated rate with the activated carbon filters present. In both tests #2 and #3, the ozone levels reached a level of 0.01 ppm ozone within 15 minutes.
# While the peak ozone concentrations reached in tests #2 and #3 were noticeably lower than the peak ozone concentration of test #1, the ozone levels in tests #2 and #3 were at least sufficient to achieve sterilization. In each of tests #2 and #3, sterilization efficacy was measured with the assistance of LB agar plates loaded with E. coli bacteria. […] The quantity of E. coli present was then analyzed and a photograph of each plate was taken. […] In the test dish 550, a 100% E. coli kill rate was observed; no E. coli was detected.
structure (smiles),measurement,setting,value
O=[O+][O-] [ozone],acceptable ozone exposure in the workplace,[1],under 0.1 ppm
same,survival of the T1-phage,[2],negligible survival
same,time for the ozone to breakdown to 0.01 ppm ozone,"[3]; test #1, natural breakdown, no degrader, from peak approx. 325 ppm, 5.5 cubic feet chamber",approximately 28 hours
same,time for ozone levels to reach 0.01 ppm ozone,"[3]; tests #2 and #3, three activated carbon filters as ozone degrader, from peak approx. 140-150 ppm",≤ 15 min
same,half-life,[4]; in the air,36 to 72 h
same,half-life,[4]; in water,0.13 to 0.5 h
same,E. coli kill rate,[5],100%
